In PMC10935503 (Acta Pharmaceutica Sinica. B, 2023):
Like-named read-outs stand apart in the source and are kept apart here.

What was measured:
[1] = tested on: HIV-1 WT strain (IIIB); experiment: Anti-HIV-1 activity in MT-4 cells, MTT method, WT strain IIIB; type: cell-based
[2] = tested on: MT-4 cells; experiment: Cytotoxicity in mock-infected MT-4 cells, MTT method; type: cell-based; conditions: MTT method
[3] = tested on: HIV-1 K103N + Y181C (RES056); experiment: microbe, parasite or virus in culture; type: cell-based; conditions: for EC50: Human immunodeficiency virus 1, MT4, read-out: EC50 RES056; for RF RES056: resistance fold, EC50 (mutant strain)/EC50 (WT strain); for SI RES056: selectivity index, ratio of CC50/EC50
[4] = tested on: HIV-1 L100I; experiment: microbe, parasite or virus in culture; type: cell-based; conditions: for EC50: Human immunodeficiency virus 1, MT4, read-out: EC50 L100I; for RF L100I: resistance fold, EC50 (mutant strain)/EC50 (WT strain); for SI L100I: selectivity index, ratio of CC50/EC50
[5] = tested on: HIV-1 K103N; experiment: microbe, parasite or virus in culture; type: cell-based; conditions: for EC50: Human immunodeficiency virus 1, MT4, read-out: EC50 K103N; for RF K103N: resistance fold, EC50 (mutant strain)/EC50 (WT strain); for SI K103N: selectivity index, ratio of CC50/EC50
[6] = tested on: HIV-1 Y181C; experiment: microbe, parasite or virus in culture; type: cell-based; conditions: for EC50: Human immunodeficiency virus 1, MT4, read-out: EC50 Y181C; for RF Y181C: resistance fold, EC50 (mutant strain)/EC50 (WT strain); for SI Y181C: selectivity index, ratio of CC50/EC50
[7] = tested on: HIV-1 Y188L; experiment: microbe, parasite or virus in culture; type: cell-based; conditions: for EC50: Human immunodeficiency virus 1, MT4, read-out: EC50 Y188L; for RF Y188L: resistance fold, EC50 (mutant strain)/EC50 (WT strain); for SI Y188L: selectivity index, ratio of CC50/EC50
[8] = tested on: HIV-1 E138K; experiment: microbe, parasite or virus in culture; type: cell-based; conditions: for EC50: Human immunodeficiency virus 1, MT4, read-out: EC50 E138K; for RF E138K: resistance fold, EC50 (mutant strain)/EC50 (WT strain); for SI E138K: selectivity index, ratio of CC50/EC50
[9] = tested on: HIV-1 F227L + V106A; experiment: microbe, parasite or virus in culture; type: cell-based; conditions: for EC50: Human immunodeficiency virus 1, MT4, read-out: EC50 F227L + V106A; for RF F227L + V106A: resistance fold, EC50 (mutant strain)/EC50 (WT strain); for SI F227L + V106A: selectivity index, ratio of CC50/EC50
[10] = Cytotoxicity in mock-infected MT-4 cells, MTT method; type: cell-based; conditions: human
[11] = molecular target: HIV-1 RT (Human immunodeficiency virus type 1 group M subtype B, UniProt P03366); experiment: HIV-1 RT inhibition assay; type: biochemical
[12] = In vivo pharmacokinetics in SD rats; parameters: species or system Sprague–Dawley (SD) rats
[13] = tested on: CYP1A2, CYP2C9, CYP2C19, CYP2D6 (range over isoforms); experiment: Cytochrome P450 inhibition assay, summary over isoforms; type: in vitro ADME; conditions: human, human liver microsomes
[14] = cited from earlier work
[15] = physchem
[16] = Human immunodeficiency virus 1, IIIB, MT4, read-out: EC50 IIIB
[17] = Sprague-Dawley, rat, plasma, iv, 2 mg/kg
[18] = Sprague-Dawley, rat, plasma, po, 20 mg/kg

Row | Molecule | EC50 [1, 16] | EC50 [3] | RF RES056 [3] | SI RES056 [3] | EC50 [4] | RF L100I [4] | SI L100I [4] | EC50 [5] | RF K103N [5] | SI K103N [5] | EC50 [6] | RF Y181C [6] | SI Y181C [6] | EC50 [7] | RF Y188L [7] | EC50 [8] | RF E138K [8] | EC50 [9] | RF F227L + V106A [9] | CC50 at 5 days [10] | also measured
1 | 4-((1-(4-(4-Cyano-2,6-dimethylphenoxy)-7,8-dihydro-6H-thiopyrano[3,2-d]pyrimidin-2-yl)piperidin-4-yl)amino)benzenesulfonamide [19b] | – | – | – | – | – | – | – | – | – | – | – | – | – | – | – | – | – | – | – | – | EC50 IIIB ([1]; MT-4 cells, MTT method, HIV-1 IIIB (WT)): lost potency; EC50 ([1]; read-out: EC50 IIIB, MT-4 cells, MTT method, HIV-1 IIIB (WT)): > 16100 nM; CC50 [2]: 3070 ± 300 nM
2 | Cc1cc(/C=C/C#N)cc(C)c1Oc1nc(Nc2ccc(C#N)cc2)nc2c1SCCC2 [15b, (E)-4-((4-(4-(2-Cyanovinyl)-2,6-dimethylphenoxy)-7,8-dihydro-6H-thiopyrano[3,2-d]pyrimidin-2-yl)amino)benzonitrile] | 3.18 ± 1.21 nM | 23.5 ± 14.7 nM | 7.4 | 208 | 7.26 ± 0.51 nM | 2.3 | 674 | 6.42 ± 0.4 nM | 2.0 | 762 | 11.1 ± 3.39 nM | 3.5 | 441 | 23.3 ± 0.48 nM | 7.3 | 21.7 ± 7.55 nM | 6.8 | 27.9 ± 9.17 nM | 8.8 | 4890 ± 620 nM | Times greater activity than ETR, L100I ([4]; ratio of EC50 values vs ETR): 1.3 times; SI Y188L [7]: 210; SI E138K [8]: 225; SI F227L + V106A [9]: 175; IC50 [11]: 101 ± 12 nM
3 | Cc1cc(C#N)cc(C)c1Oc1nc(NC2CCN(c3cccc(C(N)=O)c3)CC2)nc2c1SCCC2 [27b, 3-(4-((4-(4-Cyano-2,6-dimethylphenoxy)-7,8-dihydro-6H-thiopyrano[3,2-d]pyrimidin-2-yl)amino)piperidin-1-yl)benzamide] | 3.76 ± 2.29 nM | 24.5 ± 8.11 nM | 6.5 | 244 | 13.3 ± 6.79 nM | 3.5 | 450 | 5.46 nM | 1.5 | 1097 | 7.87 ± 1.84 nM | 2.1 | 761 | 7.14 ± 1.5 nM | 1.9 | 17.1 ± 4.42 nM | 4.5 | 111 ± 11.4 nM | 29.5 | 5990 ± 2950 nM | SI Y188L [7]: 839; SI E138K [8]: 350; SI F227L + V106A [9]: 54
4 | O=C1Nc2ccc(Cl)cc2[C@@](C#CC2CC2)(C(F)(F)F)O1 [EFV, efavirenz, reference compound] | 2.67 ± 1.73 nM | 114 ± 55.6 nM | – | – | 57.4 ± 45.9 nM | – | – | 99.2 ± 56.8 nM | – | – | 4.94 ± 1.75 nM | – | – | 93.2 ± 58.9 nM | – | 4.67 ± 1.38 nM | – | 77.4 ± 55.9 nM | – | > 6340 nM | –
5 | Cc1cc(C#N)cc(C)c1Oc1nc(Nc2ccc(C#N)cc2)nc(N)c1Br [ETR, etravirine, reference compound] | 2.81 ± 0.47 nM | 35.2 ± 19.7 nM | 12.5 | – | 9.13 ± 6.1 nM | 3.2 | – | 3.38 ± 0.69 nM | 1.2 | – | 14.1 ± 5.72 nM | 5.0 | – | 15.4 ± 6.07 nM | 5.5 | – | – | 16.3 ± 6.24 nM | 5.8 | 2200 ± 15 nM | V (iv) ([12]; SD rats, iv 2 mg/kg, mean ± SD, n = 3): 8.85 ± 1.17 L/kg; AUC(0-inf) [12, 17]: 587 ± 48 ng·h/mL; AUC(0-t) [12, 17]: 576 ± 45 ng·h/mL; MRT inf [12, 17]: 1.1 ± 0.34 h; MRT last [12, 17]: 0.93 ± 0.23 h; clearance [12, 17]: 57 mL/min/kg; half-life [12, 17]: 1.8 ± 0.24 h; bioavailability ([12]; Sprague-Dawley, rat, plasma, oral, 20 mg/kg): 7.17%; AUC(0-inf) [12, 18]: 421 ± 153 ng·h/mL; AUC(0-t) [12, 18]: 395 ± 139 ng·h/mL; Cmax [12, 18]: 110 ± 34.1 ng/mL; MRT inf [12, 18]: 3.03 ± 0.14 h; MRT last [12, 18]: 2.55 ± 0.04 h; Tmax [12, 18]: 1 h; half-life [12, 18]: 1.82 ± 0.07 h; IC50 at 10 min [13]: 277 to 12000 nM; Water solubility (Sol.) [14]: < 1 µg/mL; solubility ([15]; pH 7, aqueous buffer): < 1 µg/mL; solubility ([15]; pH 7.4, aqueous buffer): < 1 µg/mL
6 | Cc1cc(/C=C/C#N)cc(C)c1Nc1ccnc(Nc2ccc(C#N)cc2)n1 [RPV, rilpivirine, reference compound] | 1 ± 0.27 nM | – | – | – | – | 1.5 | – | – | 1.3 | – | – | – | – | – | 80 | – | 5.8 | – | 82 | – | IC50 [11]: 118 ± 27 nM; IC50 at 10 min [13]: 335 to 9110 nM; Water solubility (Sol.) [14]: < 1 µg/mL
7 | Cc1cc(C#N)cc(C)c1Oc1nc(Nc2ccc(C#N)cc2)nc2c1SCCC2 [compound 15a, 4-((2-((4-Cyanophenyl)amino)-7,8-dihydro-6H-thiopyrano[3,2-d]pyrimidin-4-yl)oxy)-3,5-dimethylbenzonitrile] | 3.38 ± 3.17 nM | 85.3 ± 54.3 nM | 25.2 | 53 | 16.7 ± 4.51 nM | 4.9 | 271 | 6.41 ± 0.99 nM | 1.9 | 707 | 42.3 ± 4.45 nM | 12.5 | 107 | 20.7 ± 1.88 nM | 6.1 | 17.4 ± 2.24 nM | 5.1 | 40.9 nM | 12.1 | 4530 ± 720 nM | SI Y188L [7]: 219; SI E138K [8]: 260; SI F227L + V106A [9]: 111
8 | Cc1cc(C#N)cc(C)c1Oc1nc(Nc2ccc(C#N)cc2)nc2c1S(=O)(=O)CCC2 [compound 16b, 4-((2-((4-Cyanophenyl)amino)-5,5-dioxido-7,8-dihydro-6H-thiopyrano[3,2-d]pyrimidin-4-yl)oxy)-3,5-dimethylbenzonitrile] | 1.44 ± 0.17 nM | 49.1 ± 14 nM | 34.1 | 381 | 21.8 ± 5.65 nM | 15.1 | 858 | 2.3 ± 0.15 nM | 1.6 | 8130 | 10.4 ± 1.44 nM | 7.2 | 1798 | 12.3 ± 2.27 nM | 8.5 | 10.9 ± 0.32 nM | 7.6 | 37.9 ± 21.3 nM | 26.3 | 18700 ± 8010 nM | SI Y188L [7]: 1520; SI E138K [8]: 1716; SI F227L + V106A [9]: 493; IC50 [11]: 27 ± 11 nM
